Source: PMC7577125 (Antimicrobial Agents and Chemotherapy, 2020)

What was measured:
[1] = test system: HBV Cp D29G; assay: microbe, parasite or virus in culture; assay type: cell-based, Hepatitis B virus
[2] = target: T1, CYP2C9 (Homo sapiens, UniProt P11712); assay: CYP inhibition in human liver microsomes, 2C9; assay type: in vitro ADME; details: 0.1–100 μM
T1 construct: in human liver microsomes; from tissue; host or cells: human liver microsomes

[3] = test system: Huh7, HepG2, HeLa H1A, HEK293, NCI-H226, MOLT-4, PBMC
[4] = test system: HBV Cp Wild type; assay: microbe, parasite or virus in culture; assay type: cell-based, Hepatitis B virus
[5] = test system: HBV; assay: HBV infection of primary human hepatocytes (PHHs); assay type: cell-based; details: Hepatitis B virus, Hepatocyte, PHH
[6] = test system: HBV cccDNA; assay: cccDNA formation assay in infected PHH cells (Southern blot); assay type: cell-based; details: Hepatitis B virus, 96 h, 4 days, read-out: cccDNA % of Control
[7] = test system: herpes simplex virus 1, human rhinovirus 16, influenza A virus; assay: Cell protection assays with 3 unrelated viruses; details: concentrations of up to 10 μM
[8] = test system: HBV; assay: Dose response of ETV and ABI-H0731 alone and in combination in induced HepAD38 cells; assay type: cell-based, Hepatitis B virus
Experimental: Viral replication was evaluated by quantifying the levels of total HBV DNA in the cells by qPCR. […] In both cases, the data are plotted as a function of each drug’s concentration relative to its VR EC50.

[9] = test system: HBV Cp Y118F; assay: microbe, parasite or virus in culture; assay type: cell-based, Hepatitis B virus
[10] = test system: HBV; assay: HBV infection of HepG2-NTCP cells; assay type: cell-based; details: Hepatitis B virus
[11] = test system: HBV genotype C; assay: microbe, parasite or virus in culture; assay type: cell-based; details: Hepatitis B virus, read-out: Mean antiviral EC50
[12] = target: T2, CYP2B6 (Homo sapiens, UniProt P20813); assay: CYP inhibition in human liver microsomes, 2B6; assay type: in vitro ADME; details: 0.1–100 μM
T2 construct: in human liver microsomes; from tissue; host or cells: human liver microsomes

[13] = target: CYP2C8 (Homo sapiens, UniProt P10632); assay: biochemical
[14] = test system: HBV Cp I105L; assay: microbe, parasite or virus in culture; assay type: cell-based, Hepatitis B virus
[15] = test system: HBV Cp I105T; assay: microbe, parasite or virus in culture; assay type: cell-based, Hepatitis B virus
[16] = in vitro; details: rat, plasma
[17] = target: HBV Cp (3CA Cp150-BODIPY) (Hepatitis B virus genotype D subtype adw, UniProt P03147, C107A/C48A/C61A/R150C); assay: HBV Cp in vitro assembly assay (fluorescence quenching)
[18] = target: CYP3A (Homo sapiens, UniProt P08684); assay: CYP inhibition in human liver microsomes, 3A
[19] = test system: HBV; assay: HBV DNA replication in cell culture systems (HepAD38, HepG2-NTCP, PHHs), summary; details: Hepatitis B virus, HePAD38, read-out: EC50, inhibition of HBV DNA replication
Excerpt: The first is an HBV-inducible cell line (HepAD38) that bears a single “1.1 copy” of the HBV genome (genotype D, subtype ayw) under the control of a cytomegalovirus (CMV) tetracycline (Tet)-off promoter ([13]), and the second utilizes HBV infection of either a HepG2-derived cell line stably expressing the HBV entry receptor sodium taurocholate cotransporting polypeptide (NTCP) (HepG2-NTCP) or primary human hepatocytes (PHHs). The primary marker measured for inhibition of HBV replication in the cell culture systems is viral DNA.
HepAD38 cells were trypsinized and then washed three times with phosphate-buffered saline (PBS) to remove traces of Tet. Cells were seeded into 96-well plates in assay medium (DMEM–F-12 medium with 2% Tet-free FBS) and treated with compounds. Supernatants and cells were harvested at 5 days postinduction.
HepG2-NCTP cells were infected with purified HepAD38 virus at a multiplicity of infection (MOI) of 50 in infection medium (DMEM, 5% FBS, 2% DMSO, 5% PEG 8000). Following infection, HepG2-NTCP cells were washed twice and switched to HepG2-NTCP treatment medium (DMEM, 5% FBS). PHHs were infected with HBV at an MOI of 50 in infection medium and grown in PHH maintenance medium for the duration of the experiment. Compounds were added after infection. […] Intracellular HBV DNA and pgRNA were measured by branch DNA (bDNA) assays (Thermo Fisher).

[20] = test system: HBV; assay: De novo infection models (HepG2-NTCP and PHH), summary; assay type: cell-based, Hepatitis B virus; details: Hepatitis B virus; range over two de novo infection models; read-out: EC50, suppression of cccDNA formation
[21] = in vitro; details: human
[22] = test system: NrtI^R HBV (rtL180M/M204V); assay: microbe, parasite or virus in culture; assay type: cell-based, Hepatitis B virus
[23] = target: pregnane X receptor (PXR) (Homo sapiens, UniProt O75469); assay: PXR activation / CYP3A4 induction in DPX2 cells; assay type: in vitro ADME; details: 24 h
Experimental: The determination of CYP induction potential was conducted using CPX2 cells that harbor the human PXR gene and a luciferase reporter gene linked to two promoters identified in the human 3A4 gene.

[24] = in vitro; details: for half-life at 1 μM: hepatocytes; for half-life at 0.5 μM: microsomes
Experimental: In vitro intrinsic clearance (CLint) was determined as follows. […] The calculated CLint was determined from the relationship CLint = k × (volume of incubation in ml/mg microsomal protein) × (mg protein in liver/g liver weight) × (g liver weight/kg body weight). The values for liver weights, body weights, as well as hepatic blood flows (QH) across species were obtained from data reported previously by Davies and Morris ([28]). Values for liver microsome protein/liver weight for mouse, rat, dog, and monkey were […] ([27]), and that for human was 33 mg/g. The calculation used for the prediction of hepatic clearance (CLpred) is CLpred = (QH × CLint)/(QH + CLint).

[25] = in vitro; details: mouse, plasma
[26] = Hepatitis B virus, Huh-7, read-out: Mean EC50
[27] = total intracellular viral DNA, read-out: Mean EC50, viral DNA

Sequence of pregnane X receptor (PXR) (O75469 whole entry): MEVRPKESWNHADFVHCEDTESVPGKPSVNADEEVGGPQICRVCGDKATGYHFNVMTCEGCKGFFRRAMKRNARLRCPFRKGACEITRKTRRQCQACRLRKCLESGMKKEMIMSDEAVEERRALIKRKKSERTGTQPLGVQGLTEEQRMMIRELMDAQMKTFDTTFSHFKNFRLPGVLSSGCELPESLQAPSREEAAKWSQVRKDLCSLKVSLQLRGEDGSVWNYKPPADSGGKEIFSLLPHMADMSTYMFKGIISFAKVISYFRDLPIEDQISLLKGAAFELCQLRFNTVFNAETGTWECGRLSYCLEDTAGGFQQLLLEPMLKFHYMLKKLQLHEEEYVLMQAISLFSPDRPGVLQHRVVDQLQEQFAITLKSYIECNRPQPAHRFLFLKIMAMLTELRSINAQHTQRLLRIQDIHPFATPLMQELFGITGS
Sequence of CYP3A (P08684 2-503): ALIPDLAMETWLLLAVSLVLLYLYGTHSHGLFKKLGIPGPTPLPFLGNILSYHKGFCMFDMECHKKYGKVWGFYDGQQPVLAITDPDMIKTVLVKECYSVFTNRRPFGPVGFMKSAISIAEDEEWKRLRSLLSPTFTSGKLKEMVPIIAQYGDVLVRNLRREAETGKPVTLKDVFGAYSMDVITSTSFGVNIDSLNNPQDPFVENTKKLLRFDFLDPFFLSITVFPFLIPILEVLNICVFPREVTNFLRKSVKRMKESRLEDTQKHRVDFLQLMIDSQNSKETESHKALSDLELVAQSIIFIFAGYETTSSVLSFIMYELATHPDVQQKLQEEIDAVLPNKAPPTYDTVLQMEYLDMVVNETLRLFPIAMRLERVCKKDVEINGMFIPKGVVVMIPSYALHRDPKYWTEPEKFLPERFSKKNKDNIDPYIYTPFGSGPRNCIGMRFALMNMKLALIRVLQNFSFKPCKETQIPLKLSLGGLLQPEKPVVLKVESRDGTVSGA
T1 sequence (P11712 whole entry): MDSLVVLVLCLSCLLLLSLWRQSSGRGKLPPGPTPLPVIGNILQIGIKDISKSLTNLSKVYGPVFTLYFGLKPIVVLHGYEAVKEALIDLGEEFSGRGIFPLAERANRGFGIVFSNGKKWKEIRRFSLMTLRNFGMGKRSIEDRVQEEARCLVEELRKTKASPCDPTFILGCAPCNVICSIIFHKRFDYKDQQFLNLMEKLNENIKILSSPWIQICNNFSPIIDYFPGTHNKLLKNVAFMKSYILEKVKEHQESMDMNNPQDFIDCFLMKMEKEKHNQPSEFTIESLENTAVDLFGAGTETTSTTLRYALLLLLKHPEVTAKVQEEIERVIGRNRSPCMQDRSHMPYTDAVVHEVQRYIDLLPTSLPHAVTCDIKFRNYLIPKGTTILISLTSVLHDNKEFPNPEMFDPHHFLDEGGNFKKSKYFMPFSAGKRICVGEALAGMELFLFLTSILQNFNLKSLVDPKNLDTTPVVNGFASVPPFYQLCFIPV
Sequence of CYP2C8 (P10632 whole entry): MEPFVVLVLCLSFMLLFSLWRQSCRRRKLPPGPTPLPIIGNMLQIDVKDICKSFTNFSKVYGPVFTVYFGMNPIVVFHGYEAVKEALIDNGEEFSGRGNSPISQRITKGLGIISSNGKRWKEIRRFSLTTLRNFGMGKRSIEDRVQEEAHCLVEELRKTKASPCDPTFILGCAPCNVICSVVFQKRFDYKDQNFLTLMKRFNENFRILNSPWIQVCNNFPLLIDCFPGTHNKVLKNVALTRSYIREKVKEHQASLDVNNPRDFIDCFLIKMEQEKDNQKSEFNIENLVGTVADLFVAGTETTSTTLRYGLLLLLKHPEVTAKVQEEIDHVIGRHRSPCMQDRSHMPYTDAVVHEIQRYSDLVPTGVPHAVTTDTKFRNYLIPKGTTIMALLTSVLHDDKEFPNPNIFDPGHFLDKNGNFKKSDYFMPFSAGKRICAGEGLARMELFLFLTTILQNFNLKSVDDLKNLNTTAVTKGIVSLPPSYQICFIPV
T2 sequence (P20813 whole entry): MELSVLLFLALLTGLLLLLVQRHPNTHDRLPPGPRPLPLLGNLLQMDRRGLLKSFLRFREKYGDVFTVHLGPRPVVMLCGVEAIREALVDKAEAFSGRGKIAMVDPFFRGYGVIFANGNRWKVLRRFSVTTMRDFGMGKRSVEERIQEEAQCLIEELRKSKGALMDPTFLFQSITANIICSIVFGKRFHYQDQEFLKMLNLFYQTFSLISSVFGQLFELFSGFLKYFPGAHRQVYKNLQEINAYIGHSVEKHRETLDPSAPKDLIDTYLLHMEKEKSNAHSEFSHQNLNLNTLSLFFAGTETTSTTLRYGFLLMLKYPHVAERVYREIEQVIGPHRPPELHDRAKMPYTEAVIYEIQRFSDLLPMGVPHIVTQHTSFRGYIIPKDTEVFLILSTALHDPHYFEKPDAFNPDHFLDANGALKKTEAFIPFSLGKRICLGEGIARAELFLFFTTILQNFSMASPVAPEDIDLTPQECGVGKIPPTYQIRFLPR
Sequence of HBV Cp (3CA Cp150-BODIPY) (P03147 1-150 C48A/C61A/C107A/R150C): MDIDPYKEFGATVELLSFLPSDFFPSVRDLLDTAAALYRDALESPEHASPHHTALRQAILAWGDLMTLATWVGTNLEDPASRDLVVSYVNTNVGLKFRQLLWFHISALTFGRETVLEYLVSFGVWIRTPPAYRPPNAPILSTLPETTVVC

O=C(NCc1cnc(C(F)(F)F)s1)c1ccc2c(c1)NC(=O)c1ccccc1S2(=O)=O [ABI-H0731]
Fold shift ([1]; D29G vs wild type): 20 fold
EC50 [1, 26]: 2960 nM
IC50 [2]: 30700 nM
CC50 relative to VR EC50 [3]: > 50 fold
EC50 [4, 26]: 146 ± 21 nM
Fold shift ([4]; Wild type): 1 fold
EC50 ([5]; read-out: Mean EC50, HBeAg): 2210 nM
EC50 ([5]; read-out: Mean EC50, HBsAg): 3000 nM
EC50 ([5]; read-out: Mean EC50, pgRNA): 1840 nM
EC50 [5, 27]: 154 ± 18 nM
activity at […] ([6]; 0.37 μM): 90%
activity at 1.11 µM ([6]; 1.11 μM): 80%
activity at 3.33 µM ([6]; 3.33 μM): 56%
activity at 10 µM ([6]; 10.0 μM): 15%
inhibitory activity against unrelated viruses [7]: no significant inhibitory activity
HBV DNA levels ([8]; 60× VR EC50 (10 μM ABI-H0731), control 2.2 × 10^6): 2.1 × 10^3 copies/μl
inhibition of HBV DNA replication ([8]; 60× VR EC50 (10 μM)): ~3 logs
inhibition at 1.7 µM ([8]; Hepatitis B virus, HePAD38, 96 h, read-out: inhibition of HBV replication): 98%
EC50 [9, 26]: 2070 nM
Fold shift ([9]; Y118F vs wild type): 14 fold
EC50 ([10]; read-out: Mean EC50, HBeAg): 4950 nM
EC50 ([10]; read-out: Mean EC50, HBsAg): 7300 nM
EC50 ([10]; read-out: Mean EC50, pgRNA): 2680 nM
EC50 [10, 27]: 307 ± 41 nM
EC50 [11]: 88.2 ± 27 nM
IC50 [12]: 27700 nM
IC50 [13]: 27200 nM
EC50 [14, 26]: 41 ± 6 nM
Fold shift ([14]; I105L vs wild type): 0.3 fold
EC50 [15, 26]: 324 ± 20 nM
Fold shift ([15]; I105T vs wild type): 2.2 fold
fraction unbound at 6 h [16]: 0.02 to 0.052
IC50 [17]: 267 nM
IC50 ([18]; probe midazolam): 82300 nM
IC50 ([18]; probe test (so in the source)): 46200 nM
EC50 [19]: 173 to 307 nM
EC50 [20]: 1840 to 7300 nM
CC50 at 4 days [21]: > 10000 nM
Fold shift ([22]; HepG2-NrtI^R versus HepAD38 (wild type)): 1.2 fold
EC50 ([22]; Hepatitis B virus, 96 h, read-out: Mean EC50): 262 ± 97 nM
PXR activation activity, % of the control activity ([23]; 10 μM): 29%
PXR activation activity, % of the control activity ([23]; 40 μM): 68%
% LBF ([24]; cynomolgus monkey, 0.5 μM): 15%
CLpred ([24]; cynomolgus monkey, 0.5 μM): 4.7 mL/min/kg
% LBF ([24]; cynomolgus monkey, 1 μM): 15%
CLpred ([24]; cynomolgus monkey, 1 μM): 4.7 mL/min/kg
% LBF ([24]; dog, 0.5 μM): 65%
CLpred ([24]; dog, 0.5 μM): 20 mL/min/kg
% LBF ([24]; dog, 1 μM): 81%
CLpred ([24]; dog, 1 μM): 25 mL/min/kg
half-life at 1 μM ([24]; dog): 0.667 h
half-life at 0.5 μM ([24]; dog): 0.622 h
% LBF ([24]; human, 0.5 μM): 13%
CLpred ([24]; human, 0.5 μM): 2.8 mL/min/kg
% LBF ([24]; human, 1 μM): 11%
CLpred ([24]; human, 1 μM): 2.3 mL/min/kg
half-life at 1 μM ([24]; human): 11.6 h
half-life at 0.5 μM ([24]; human): 6.27 h
half-life at 1 μM ([24]; monkey): 7.92 h
half-life at 0.5 μM ([24]; monkey): 5.98 h
% LBF ([24]; mouse, 0.5 μM): 21%
CLpred ([24]; mouse, 0.5 μM): 19 mL/min/kg
half-life at 0.5 μM ([24]; mouse): 2.33 h
% LBF ([24]; rat, 0.5 μM): 12%
CLpred ([24]; rat, 0.5 μM): 7.9 mL/min/kg
half-life at 0.5 μM ([24]; rat): 4.62 h
fraction unbound at 6 h [25]: 0.03 to 0.034
